Consider 11 compounds from patent publication US20190202823A1, “N-SULFONYLATED PYRAZOLO[3,4-b]PYRIDIN-6-CARBOXAMIDES AND METHOD OF USE” (AbbVie S.à.r.l., priority 2015, published 2019).

In assay [1] the target is T1, ΔF508-CFTR (Homo sapiens, UniProt P13569, DEL508-508).
T1 construct: host or cells: CFBE41o- cells, doxycycline-inducible expression
Description: CFTR cell surface levels using HRP-tagged ΔF508-CFTR expressing CFBE cells, in the presence of a co-corrector. The note with it: HRP-tagged ΔF508-CFTR CFBE41o- cells, with 3 μM co-corrector; for % Activation: positive control 3 μM co-corrector. In kind it is cell-based. From the text: (§1) Measuring CFTR Cell Surface Levels Using HRP-Tagged ΔF508-CFTR Expressing CFBE Cells
(§2) The HRP-tagged ΔF508-CFTR cell assay measures the expression of CFTR-ΔF508 at the plasma membrane. CFTR-ΔF508 has a folding defect leading to absence of protein at the plasma membrane. This assay is used to evaluate the capacity of compounds to increase the expression of CFTR-ΔF508 at the plasma membrane. […] When HRP-tagged ΔF508-CFTR is present at the plasma membrane, the HRP enzyme activity can be measured. The amount of CFTR-ΔF508 that can be rescued to the plasma membrane is correlated with the amount of functional enzyme that can be measured.
(§3) There are several ways to measure the capacity of compounds to rescue CFTR-ΔF508 to the plasma membrane; either compounds are evaluated on their own and the impact on plasma membrane levels is measured or compounds are evaluated in combination with a co-corrector, i.e. a compound that rescues CFTR-ΔF508 to the plasma membrane but rescue can be enhanced by addition of compounds due to a complementary mode of action.
Activity of Compounds in Combination with Co-Corrector:
On day four, 10 μL of test compounds diluted in PBS (phosphate buffered saline) were added to the plates at a final DMSO concentration of 0.1%. In order to measure compound synergy with a co-corrector, 3 μM co-corrector (3-[(2R,4R)-4-({[1-(2,2-difluoro-1,3-benzodioxol-5-yl)cyclopropyl]carbonyl}amino)-7-methoxy-3,4-dihydro-2H-chromen-2-yl]benzoic acid) was added along with test compounds. All compound plates contained negative controls (DMSO) and positive controls (3 μM co-corrector). Cell plates were incubated at 33° C., 5% CO2 for 20 hours. […] After incubation for 15 minutes in the dark, the chemiluminescence was measured using a plate reader (EnVision®, Perkin Elmer). Raw data were normalized to percentage activity values using the equation: 100×(Sample−Negative control)/(Positive control−Negative Control).

Assay [2] has as its target T1, ΔF508-CFTR. Briefly: CFTR cell surface levels using HRP-tagged ΔF508-CFTR expressing CFBE cells, intrinsic corrector capacity. Format: cell-based. The arrangement: % Activation: concentration or dose not given beside the values. As to conditions: HRP-tagged ΔF508-CFTR expressing CFBE41o- cells; compounds alone (intrinsic corrector capacity); 20 hours at 33° C.
Source text: as §1, §2, §3
Activity of Compounds for their Intrinsic Corrector Capacity:
On day four, L test compounds diluted in PBS were added to the plates at a final DMSO concentration of 0.1%. All compound plates contained negative controls (DMSO) and positive controls ([…] corrector, 3-[(2R,4R)-4-({[1-(2,2-difluoro-1,3-benzodioxol-5-yl)cyclopropyl]carbonyl}amino)-7-methoxy-3,4-dihydro-2H-chromen-2-yl]benzoic acid). Cell plates were incubated at 33° C., 5% CO2 for 20 hours. […] After incubation for 15 minutes in the dark, chemiluminescence was measured using a plate reader (EnVision®, Perkin Elmer). Raw data were normalized to percentage activity values using the equation: 100×(Sample−Negative control)/(Positive control−Negative Control).

Each structure is given as a SMILES string.

T1 sequence (P13569 with tags, fused parts or gaps DEL508-508): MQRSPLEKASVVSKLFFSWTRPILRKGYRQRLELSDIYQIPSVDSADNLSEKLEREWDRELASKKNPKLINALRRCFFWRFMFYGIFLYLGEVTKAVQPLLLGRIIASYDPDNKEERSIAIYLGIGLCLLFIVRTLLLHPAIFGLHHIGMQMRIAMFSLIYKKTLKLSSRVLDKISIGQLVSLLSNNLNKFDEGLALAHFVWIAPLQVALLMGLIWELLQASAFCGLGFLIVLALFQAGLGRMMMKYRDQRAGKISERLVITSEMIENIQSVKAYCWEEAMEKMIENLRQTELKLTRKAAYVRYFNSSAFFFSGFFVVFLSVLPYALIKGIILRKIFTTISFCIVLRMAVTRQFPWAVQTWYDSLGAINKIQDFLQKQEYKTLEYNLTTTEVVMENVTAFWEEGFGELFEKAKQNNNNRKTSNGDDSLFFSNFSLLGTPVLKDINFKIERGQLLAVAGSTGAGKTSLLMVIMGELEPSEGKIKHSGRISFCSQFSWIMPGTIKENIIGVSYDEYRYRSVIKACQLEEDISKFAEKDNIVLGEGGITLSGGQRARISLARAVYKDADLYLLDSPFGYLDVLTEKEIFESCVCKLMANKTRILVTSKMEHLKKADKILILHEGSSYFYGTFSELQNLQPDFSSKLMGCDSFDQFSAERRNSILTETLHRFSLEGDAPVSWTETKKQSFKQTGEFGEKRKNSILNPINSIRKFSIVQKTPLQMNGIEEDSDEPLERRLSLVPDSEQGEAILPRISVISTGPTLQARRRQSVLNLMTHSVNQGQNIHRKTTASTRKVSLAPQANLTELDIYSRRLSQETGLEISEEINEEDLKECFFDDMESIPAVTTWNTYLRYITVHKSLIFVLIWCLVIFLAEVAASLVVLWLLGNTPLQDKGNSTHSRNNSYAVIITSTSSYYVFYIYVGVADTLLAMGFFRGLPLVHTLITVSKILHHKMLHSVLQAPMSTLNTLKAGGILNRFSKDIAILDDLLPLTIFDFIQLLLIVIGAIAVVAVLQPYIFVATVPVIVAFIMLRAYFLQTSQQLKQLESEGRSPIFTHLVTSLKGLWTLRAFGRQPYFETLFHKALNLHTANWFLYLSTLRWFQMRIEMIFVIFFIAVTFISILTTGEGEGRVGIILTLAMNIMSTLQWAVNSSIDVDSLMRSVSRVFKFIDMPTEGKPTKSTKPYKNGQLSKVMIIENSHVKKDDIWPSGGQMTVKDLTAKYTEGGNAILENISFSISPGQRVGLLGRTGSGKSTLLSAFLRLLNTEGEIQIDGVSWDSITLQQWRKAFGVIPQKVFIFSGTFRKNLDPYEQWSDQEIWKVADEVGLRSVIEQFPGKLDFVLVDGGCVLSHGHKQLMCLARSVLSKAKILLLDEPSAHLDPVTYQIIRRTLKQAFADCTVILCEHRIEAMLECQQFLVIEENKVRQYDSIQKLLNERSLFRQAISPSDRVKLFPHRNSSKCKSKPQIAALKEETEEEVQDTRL

With `CC(C)Oc1nn(C2CCCCC2)c2nc(C(=O)NS(C)(=O)=O)cc(-c3ccc(C4(C#N)CCN(C)CC4)cc3)c12` [compound 639], the EC50 at ΔF508-CFTR [1] turned out to be 74.4 nM; at ΔF508-CFTR [2], 132 nM. Besides, the “% Activation” value at ΔF508-CFTR [1] is 464.55%; at ΔF508-CFTR [2] it was 238.35%. With `Cc1nn(C2CCCCC2)c2nc(C(=O)NS(C)(=O)=O)cc(-c3ccc(N4CCOCC4)nc3)c12` [compound 47], the EC50 on ΔF508-CFTR [1] is 1600 nM. Take `CC(c1ccc(-c2cc(C(=O)NS(=O)(=O)N(C)C)nc3c2c(C2CCC2)nn3C2CCCCC2)cc1)N1CCOCC1` (centres unmarked) [compound 543]: on ΔF508-CFTR [1], the EC50 was found to be 39.2 nM. As for `CN(C)S(=O)(=O)NC(=O)c1cc(C2CCN(CCC(F)(F)F)CC2)c2c(C3CCC3)nn(-c3ccc(F)cc3)c2n1` [compound 604], the “% Activation” value on ΔF508-CFTR [1] is on record as 269.3%. In the case of `CS(=O)(=O)NC(=O)c1cc(OCCCN2CCCCC2)c2c(C3CCC3)nn(-c3ccccc3)c2n1` [compound 314], at ΔF508-CFTR [1], the EC50 is 692 nM. Same read-out and setting: in the case of `CN(C)S(=O)(=O)NC(=O)c1cc(N2CCC(N3CCC(C#N)C3)CC2)c2c(C3CCC3)nn(-c3ccc(F)cc3)c2n1` (centres unmarked) [compound 561] it was 42 nM.

Regarding `CCS(=O)(=O)NC(=O)c1cc(-c2ccc(OC)cc2)c2c(C)nn(-c3ccccc3)c2n1` [compound 15], the “% Activation” value at ΔF508-CFTR [2] was 151.675%. For the compound `Cc1nn(C2CCCCC2)c2nc(C(=O)NS(=O)(=O)C3CC3)cc(-c3ccc(N4CCOCC4)cc3)c12` [compound 239], the EC50 at ΔF508-CFTR [2] stood at 99.2 nM. Still for that read-out and setting: in the case of `CN1CCN(Cc2cc(C(=O)NS(C)(=O)=O)nc3c2c(C2CCC2)nn3-c2ccc(F)cc2)CC1` [compound 518] it was 10000 nM; in that of `CS(=O)(=O)NC(=O)c1cc(N2CC3(CCOCC3)C2)c2c(C3CCC3)nn(-c3ccccc3)c2n1` [compound 204], 978 nM. In the case of `COCCS(=O)(=O)NC(=O)c1cc(N2CCC(N3CCOCC3)CC2)c2c(C3CCC3)nn(-c3ccc(F)cc3)c2n1` [compound 407], the “% Activation” value on ΔF508-CFTR [2] came to 125.95%.
